Results from US12516331B2, “Monocyte-specific aptamers and uses thereof for enhancing drug delivery to cancer” (Academia Sinica, priority 2020, dated 2026).

Tests used:
[1] = system: RAW264.7 (murine monocyte cell line); assay: Flow cytometry binding of Cy5-labeled aptamers to monocyte cell line RAW264.7; design: species or system mouse; settings: RAW264.7 cells, 200 nM Cy5-aptamer, 4° C., 30 minutes, flow cytometry (FIG. 2A)
Experimental: (§1) To confirm that J10, but not S2, was capable of binding selectively to monocytes in vitro, the J10 and S2 aptamers were first labeled with the fluorescent labeling reagent Cy5 ((2Z)-2-[(2E,4E)-5-[1-(5-Carboxypentyl)-3,3-dimethyl-5-sulfoindol-1-ium-2-yl]penta-2,4-dienylidene]-1-ethyl-3,3-dimethylindole-5-sulfonate) and then incubated with monocyte cells lines RAW264.7 and J774A.1. Cy5-labeled J10 and S2 were also incubated with the mouse endothelial cell line SVEC which was used as a negative selection. In brief, 5×10^5 of each selected cell line was pre-mixed in a bloc king buffer (20% FBS and 10% salmon sperm DNA in PBS) at 4° C. for 30 minutes. After that, the cells were reacted with 200 nM Cy5-J10 or Cy5-S2 in the blocking buffer at 4° C. for 30 minutes. Finally, the sample was subjected to flow cytometry using standard protocols known in the art. […] Together, the data in FIGS. 2A and 2B confirmed that J10, but not S2, was capable of binding selectively to monocytes in vitro and being carried to the injured site in vivo.

[2] = system: J774A.1 (murine monocyte cell line); assay: Flow cytometry binding of Cy5-labeled aptamers to monocyte cell line J774A.1; design: species or system mouse; settings: J774A.1 cells, 200 nM Cy5-aptamer, 4° C., 30 minutes, flow cytometry (FIG. 2A)
Experimental: as §1

[3] = system: mouse endothelial cell line SVEC; assay: Flow cytometry binding of Cy5-labeled aptamers to endothelial cell line SVEC (negative selection); settings: 200 nM Cy5-aptamer, 4° C., 30 minutes, flow cytometry (FIG. 2A)
Experimental: as §1

[4] = system: human monocyte cell line THP-1; assay: Flow cytometry binding of Cy5-labeled aptamers to human monocyte cell line THP-1; settings: THP-1 cells, 200 nM Cy5-aptamer, 4° C., 30 minutes (FIG. 3)
Experimental: (§2) To confirm that J10 binding, but not S2 binding, was selective to human monocytes in vitro, Cy5-labeled J10 and S2 were also incubated with the human monocyte cell lines, THP-1 and U937, and human umbilical cord endothelial cells (HUVEC), which were used as a negative control. In brief, 5×10^5 of each selected cell line was pre-mixed in a bloc king buffer (20% FBS and 10% salmon sperm DNA in PBS) at 4° C. for 30 minutes. After that, the cells were reacted with 200 nM Cy5-J10 or Cy5-S2 in the blocking buffer at 4° C. for 30 minutes. Finally, the sample was subjected to flow cytometry using standard protocols known in the art.

[5] = system: human monocyte cell line U937; assay: Flow cytometry binding of Cy5-labeled aptamers to human monocyte cell line U937; settings: U937 cells, 200 nM Cy5-aptamer, 4° C., 30 minutes (FIG. 3)
Experimental: as §2

[6] = PCR analysis of aptamer targeting to the injured site in the mouse cardiac ischemia reperfusion (I/R) model; type: in vivo; settings: intravenous injection, mouse cardiac I/R model (FIG. 2B)
Description: FIGS. 2A-2D include diagrams depicting the specificity of J10 aptamer to monocytes. FIG. 2A: depicts a graph showing the amount of Cy5-labeled J10 aptamer and Cy5-labeled S2 aptamer in the monocyte cells lines RAW264.7 and J774A.1 and the mouse endothelial cell line SVEC as measured by flow cytometry. Mouse endothelial cell line SVEC was used as a negative selection. The S2 aptamer had the same nucleotide composition as J10 aptamer but randomized the sequence. Two-way ANOVA with a Tukey adjustment was used to analyze the data where *P<0.05; **P<0.01; ***P<0.001 were significant. FIG. 2B: Top panel depicts images showing the accumulating amount of J10 and S2 aptamers in infarct area of the injured hearts as measured by PCR. Bottom panel depicts quantification of PCR results. Unpaired Student's t-test was used to analyze the data where *P<0.05; **P<0.01; ***P<0.001 were significant. FIG. 2C: depicts images showing in vivo targeting of in vivo targeting of S2 aptamer-QD655 (top panel) J10 aptamer-QD655 (bottom panel) to circulating CX3CR1-GFP^+ monocytes via intravital imaging. The aptamer was conjugated with quantum dots QD655. Scale bars shown represent 100 μm. FIG. 2D: depicts a graph showing ex vivo targeting of J10 aptamer against circulating monocytes examined with flow cytometry to analyse the amount of Cy5-J10 associated with CD45^+ and CD11b^+ cells isolated from peripheral blood. […]

[7] = system: circulating myeloid cells (CD45+ CD11b+ cells); assay: Ex vivo binding of Cy5-aptamer to peripheral blood cells by flow cytometry; design: species or system mouse; settings: peripheral blood of healthy mice, 2 μM Cy5-Apt, 30 minutes at 4° C. (FIG. 2D)
Experimental: To test ex vivo binding specificity and affinity, 100 μL peripheral blood from healthy mice was withdrawn via the submandibular vein, collected in EDTA-containing anticoagulant tubes (BD Vacutainer), and incubated with 2 mL ACK lysing buffer for 10 minutes to lyse the red blood cells. After that, 2% FBS in PBS was added to stop the reaction. Following centrifugation (300 g for 3 minutes at 4° C.) the supernatants were removed. One million cells were blocked by CD16/CD32 Fc blocking antibody (1:100) after incubation for 20 minutes. Then the cells were stained for CD45 (PE-Cy7; 1:100 Biolegend), CD11b (PE; 1:200 Biolegend) and 2 μM Cy5-Apt for 30 minutes at 4° C. Finally, the cells were washed by 2% FBS in PBS and subjected to flow cytometry using standard protocols known in the art.

Substance: J10: monocyte-targeting DNA aptamer identified by cell-SELEX; sequence in Table 1; Cy5-labeled for flow cytometry (DNA CAATAGAGTCGTACAGGTCGACGCT; Cy5-labeled DNA aptamer, label position not given here) [Aptamer J10]
- percentage of Cy5-labeled monocytes [1]: significantly higher than the percentage of Cy5-labeled S2 monocytes
- percentage of Cy5-labeled monocytes [2]: significantly higher than the percentage of Cy5-labeled S2 monocytes
- detection of Cy5-labeled aptamer in endothelial cells [3]: no detection
- binding affinity (flow cytometry) [4]: high binding affinity
- binding affinity (flow cytometry) [5]: high binding affinity
- in vivo targeting to the injured site (PCR) [6]: confirmed in vivo targeting ability
- ex vivo affinity to CD45+ CD11b+ cells [7]: high affinity
